Reference: PMC4674695, “Antagonism of Nav channels and α1-adrenergic receptors contributes to vascular smooth muscle effects of ranolazine” (Scientific Reports, 2015)

Test system: T1, tetrodotoxin-sensitive voltage-gated Nav channels
T1 construct: gene Scn1a
Test: whole-cell patch clamp, voltage ramp
Assay type: cell-based, Rattus norvegicus
Conditions: INa at maximal amplitude; veratridine 100 μM present, 2 mM NiCl2, 22–24 °C, pH 7.4; block voltage-dependent

COc1ccccc1OCC(O)CN1CCN(CC(=O)Nc2c(C)cccc2C)CC1 (stereo not shown) [ranolazine]
% inhibition at 20 μM: 40%
